Reference: PubChem BioAssay AID1394 (PCMD, 2008)
Activity calls are given as the source filed them.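 How the source made its calls: active means fitted EC50 above 0 with maximum enhancement above 35%; inactive means the rest.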

Biological target: E3 ubiquitin-protein ligase Mdm2 (Homo sapiens) (UniProt Q00987)
Test: 384-well cell-based luminescence, MDM2-luciferase reporter signal enhancement, concentration series, MDM2 ligase inhibitor project (AID 1394)
Conditions: cells, MDM2-luciferase autoubiquitination reporter, 2 h; for maximum enhancement: hits give high values

E3 ubiquitin-protein ligase Mdm2 (Homo sapiens), sequence (Q00987 whole entry, looked up): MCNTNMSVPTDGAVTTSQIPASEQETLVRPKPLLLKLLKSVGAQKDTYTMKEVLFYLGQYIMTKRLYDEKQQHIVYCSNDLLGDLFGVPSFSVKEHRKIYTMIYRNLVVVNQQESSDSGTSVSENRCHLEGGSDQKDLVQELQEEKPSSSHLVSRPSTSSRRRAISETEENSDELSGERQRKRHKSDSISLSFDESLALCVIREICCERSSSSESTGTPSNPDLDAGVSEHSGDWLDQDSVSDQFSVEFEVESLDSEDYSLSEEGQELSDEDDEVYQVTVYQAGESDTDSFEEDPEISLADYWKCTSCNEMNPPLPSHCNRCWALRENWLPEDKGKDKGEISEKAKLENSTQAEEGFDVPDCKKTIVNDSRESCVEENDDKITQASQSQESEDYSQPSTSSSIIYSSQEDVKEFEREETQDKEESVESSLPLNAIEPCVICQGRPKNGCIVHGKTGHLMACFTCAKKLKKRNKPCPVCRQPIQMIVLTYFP

SMILES | maximum enhancement | EC50
COc1ccc(OC(C)C(=O)Nc2ccccc2C(F)(F)F)cc1 (centres undefined) | inactive | –
Cc1cc(C)cc(OCC(=O)NNC(=O)CCN2C(=O)c3ccccc3C2=O)c1 | inactive | –
O=C1CC(c2cccc(Cl)c2)CC(O)=C1C=NC1CCCC1 (centres undefined) | – | inactive
CC(=O)Cc1nsc(Nc2ccc(C)cc2)n1 | inactive | –
Cc1ccc(/C=C2/NC(=O)N(Cc3ccc(Br)cc3)C2=O)o1 | inactive | –
C/C(=N\NC(N)=S)c1cccnc1 | inactive | –
O=C(c1cn(-c2ccccc2)nc1-c1cccs1)N1CCOCC1 | inactive | –
Cn1c(=NC(=O)c2ccc3c(c2)OCCO3)sc2cc(S(C)(=O)=O)ccc21 | inactive | –
CCCCC(=O)/C=C/n1c(=S)oc2ccccc21 | inactive | –
N#Cc1nc(Cc2ccccc2)oc1NCCN1CCOCC1 | inactive | –
O=S1(=O)C=C(Sc2nc3ccccc3s2)c2ccccc21 | inactive | –
CCN(C(=O)CSc1nc2ccccc2c(=O)n1-c1cccc(C)c1)C1CCS(=O)(=O)C1 (centres undefined) | inactive | –
Cc1ccc(Nc2nnc(SCC3CCCCO3)s2)cc1 (centres undefined) | inactive | –
CCn1cc(C(=O)NCc2ccccc2OC)c(=O)c2cc(S(=O)(=O)N(C)C)ccc21 | inactive | –
O=C(CN1CCCCC1)NC(=O)NCc1ccccc1 | inactive | –
O=C(O)CCc1ccc(-c2ccc(Br)cc2)n1CC(=O)O | inactive | –
N=C1C(c2nc3ccccc3[nH]2)=C(O)CN1c1ccccc1 | inactive | –

SMILES | maximum enhancement | EC50
Cn1c(=O)cc(OCC(=O)NCc2cccs2)c2ccccc21 | inactive | –
O=C(COc1ccccc1)Nc1ncccn1 | inactive | –
O=C(CNCc1ccc(Cl)cc1)Nc1cccc(C(=O)O)c1 | inactive | –
Cc1cc(=O)n2[nH]c(N3C(=O)CCC3=O)nc2n1 | inactive | –
CC1=NN(c2ccc(C)cc2)C(=O)/C1=C\C=C\c1ccccc1 | inactive | –
COc1ccc(NC(=O)/C(C#N)=C\c2ccc(OCc3ccc(C(=O)O)cc3)c(OC)c2)cc1 | inactive | –
Cc1ccc(N2C(=O)NC(=O)/C(=C\C=C\c3ccco3)C2=O)cc1C | inactive | –
COc1cc(/C=C2/C(=N)N3OC(C)=CC3=NC2=O)ccc1OC(=O)c1ccco1 | inactive | –
COc1ccccc1-c1nnc(Nc2nc3c(OC)cccc3s2)o1 | inactive | –
Cc1[nH]c2ccc(Cl)cc2c(=O)c1CN1CCCC1 | inactive | –
COC(Cn1cc(C)c(=O)[nH]c1=O)OC | inactive | –
Fc1cccc(Cl)c1/C=N/n1c(-c2cccnc2)n[nH]c1=S | inactive | –
CCCCS(=O)(=O)/C=C\C=C/S(=O)(=O)CCCC | inactive | –
C=C1CCN(C(C(=O)OC)C(C)C)S(=O)(=O)c2ccccc21 (centres undefined) | inactive | –
COc1ccc(N2C(=S)N=C(Nc3ccccc3)C23CCCCC3)cc1 | inactive | –
CCc1cc2c(=O)c(-c3nc4ccccc4n3C)c(CCCC(=O)O)oc2cc1OC(=O)C(C)(C)C | inactive | –
CCN(CC)Cc1cc(C(=O)O)c(C)o1 | inactive | –
